Results from patent US11667602B2, “Compounds and their use” (AstraZeneca AB, priority 2020, dated 2023).
Values after ≈ are worked out from the molar mass of the structure shown. Where two headings read alike, the source gives them in different places.

Columns and labels:
[1] = Rat Hepatocyte Stability (Test E); type: in vitro ADME; conditions: geometric mean if run multiple times; for hepatocyte CLint: rat, hepatocytes
Method in brief: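 Intrinsic clearance in rat hepatocytes, expressed as μl/min/10^6 cells, following the literature integrated DMPK panel method. Repeat determinations combined as geometric mean.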

[2] = Human Plasma Protein Binding (Test B); type: in vitro ADME; conditions: fraction unbound (fu)
Method in brief: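 Values given as % free (fu) in human plasma, using the method of Wernevik et al. (2020). For compounds tested more than once, the arithmetic mean is given.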

[3] = Human Liver Microsomal Stability (Test C); type: in vitro ADME; conditions: for microsomal CLint: human, liver microsomes
Method in brief: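 CLint (μl/min/mg protein) derived from compound depletion in human liver microsomes following a published standardized early-DMPK protocol; replicate determinations given as arithmetic mean.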

Solubility (Test F) = type: physicochemical; conditions: arithmetic mean if run multiple times
Protocol: The assay was conducted according to the Solubility Assay described in pages 164-167 of Wernevik, J. et al., “A Fully Integrated Assay Panel for Early Drug Metabolism and Pharmacokinetics Profiling”, Assay and Drug Development Technologies, 2020, 18(4), 157-179. Data are reported in Table 36 as solubility ([…]. Where the assay was run multiple times for the same compound, the arithmetic mean is reported.

human RXFP1 = target: T1, human RXFP1 (Homo sapiens, UniProt Q9HBX9); assay: RXFP1 Hu cAMP (Test A); type: cell-based; parameters: expressed in transfected cells; host or cells: Jump-In T-REx CHO-K1 cells (ThermoFisher), induced with 10 ng/ml doxycycline for 24 h
T1 sequence (Q9HBX9 1-757): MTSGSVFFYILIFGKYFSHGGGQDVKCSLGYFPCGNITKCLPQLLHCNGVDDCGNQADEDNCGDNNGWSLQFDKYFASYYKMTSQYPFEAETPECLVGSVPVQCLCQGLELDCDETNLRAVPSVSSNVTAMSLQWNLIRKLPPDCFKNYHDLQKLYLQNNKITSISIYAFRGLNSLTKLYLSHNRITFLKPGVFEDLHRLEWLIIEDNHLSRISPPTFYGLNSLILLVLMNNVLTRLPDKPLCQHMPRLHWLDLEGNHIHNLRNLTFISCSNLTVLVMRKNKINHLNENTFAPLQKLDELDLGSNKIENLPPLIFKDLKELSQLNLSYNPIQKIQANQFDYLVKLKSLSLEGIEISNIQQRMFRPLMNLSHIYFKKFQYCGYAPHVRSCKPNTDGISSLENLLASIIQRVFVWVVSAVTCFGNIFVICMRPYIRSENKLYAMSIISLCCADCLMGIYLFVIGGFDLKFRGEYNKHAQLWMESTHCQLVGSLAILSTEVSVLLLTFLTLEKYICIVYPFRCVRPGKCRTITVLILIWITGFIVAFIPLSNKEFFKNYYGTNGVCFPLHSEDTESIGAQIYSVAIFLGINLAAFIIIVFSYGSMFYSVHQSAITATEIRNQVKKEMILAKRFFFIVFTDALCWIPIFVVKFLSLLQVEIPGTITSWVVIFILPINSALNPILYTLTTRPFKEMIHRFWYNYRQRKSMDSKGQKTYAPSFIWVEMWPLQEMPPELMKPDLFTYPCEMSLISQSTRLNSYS
Method in brief: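 Read-out is HTRF signal, inversely proportional to cAMP, converted to cAMP amount by standard curve. Stimulation occurred in inducible CHO-K1 cells expressing the human receptor with phosphodiesterases blocked by 0.5 mM IBMX.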

[4] = Human Hepatocyte Stability (Test D); type: in vitro ADME; conditions: geometric mean if run multiple times; for hepatocyte CLint at 1 µM: human, cryopreserved pooled human hepatocytes (LiverPool 10-Donor)
Method in brief: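 Intrinsic clearance (μL/min/10^6 cells), derived as kV/N from the log-linear loss of parent compound. Compound incubated at 37 °C with cryopreserved pooled human hepatocytes, 0.25×10^6 cells in 0.25 mL L-15; dosing solution 100 μM in acetonitrile. Singlicate incubations, cassette LC-MS; repeats reported as geometric mean.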

[5] = RXFP1 Hu cAMP, read-out: Test A EC50

Test B Human Plasma Protein Binding (% free) [2] [% free] | solubility (Solubility (Test F)) [µM] | Test A Sinf (human RXFP1; RXFP1 Hu cAMP) [%] | EC50 (human RXFP1; [5]) [nM] | hepatocyte CLint [1] [µL/min/1e6 cells] | microsomal CLint [3] [µL/min/mg] | hepatocyte CLint at 1 µM [4] [µL/min/1e6 cells] | SMILES | Test E Rat Hepatocyte Stability Clint ([1]; rat hepatocytes) [μL/min/10^6 cells] | Test C Human Liver Microsomal Stability Clint ([3]; human liver microsomes) [µL/min/mg] | Test D Human Hepatocyte Stability Clint ([4]; human hepatocytes) [μL/min/10^6 cells] | EC50 (human RXFP1; Test A EC50, RXFP1 Hu cAMP) [nM]
0.19 | 5 (≈ 2.97 µg/mL) | 113 | – | 130 | > 300 | 78 | COc1cc(F)c(Cc2cn[nH]c2)cc1C(=O)N[C@@H]1[C@H]2CC[C@H](C2)[C@@H]1C(=O)Nc1cccc(S(=O)(=O)C(F)(F)F)c1 [Example 219, (1R,2S,3R,4S)-3-(5-((1H-Pyrazol-4-yl)methyl)-4-fluoro-2-methoxybenzamido)-N-(3-((trifluoromethyl)sulfonyl)phenyl)bicyclo[2.2.1]heptane-2-carboxamide] | – | – | – | –
0.81 | 1000 (≈ 672 µg/mL) | 108 | 140 | 26 | 30 | 5.6 | COc1cc(C#N)c(-c2ccc(OCC(=O)O)cc2)cc1C(=O)N[C@@H]1[C@H]2CC[C@H](C2)[C@@H]1C(=O)Nc1cccc(S(=O)(=O)C(F)(F)F)c1 [Example 329, 2-((2′-Cyano-4′-methoxy-5′-(((1S,2R,3S,4R)-3-((3-((trifluoromethyl)sulfonyl)phenyl)carbamoyl)bicyclo[2.2.1]heptan-2-yl)carbamoyl)-[1,1′-biphenyl]-4-yl)oxy)acetic acid] | – | – | – | –
0.44 | 8 (≈ 4.88 µg/mL) | 110 | 64 | 98 | > 300 | 45 | COc1cc(F)c(O[C@H]2CC[C@@H](C(N)=O)CC2)cc1C(=O)N[C@@H]1[C@H]2CC[C@H](C2)[C@@H]1C(=O)Nc1ccc(F)c(C(F)(F)F)c1 [Example 500, (1R,2S,3R,4S)-3-(5-(((1s,4S)-4-Carbamoylcyclohexyl)oxy)-4-fluoro-2-methoxybenzamido)-N-(4-fluoro-3-(trifluoromethyl)phenyl)bicyclo[2.2.1]heptane-2-carboxamide] | – | – | – | –
12 | 910 (≈ 491 µg/mL) | – | – | 15 | < 3 | < 1.2 | COc1cc(C#N)c(O[C@H]2CC[C@@](C)(C(=O)O)CC2)cc1C(=O)N[C@H]1C(C(=O)NCC(C)(C)C)[C@@H]2CC[C@H]1C2 (stereo partly drawn) [Example 621, (1S,4s)-4-(2-cyano-4-methoxy-5-(((1S,2R,3S,4R)-3-(neopentylcarbamoyl)bicyclo[2.2.1]heptan-2-yl)carbamoyl)phenoxy)-1-methylcyclohexane-1-carboxylic acid] | – | – | – | –
17 | > 860 | – | – | 11 | < 5.1 | 1.7 | COc1cc(C#N)c(O[C@H]2CC[C@@](C)(C(=O)O)CC2)cc1C(=O)N[C@@H]1[C@H]2CC[C@H](C2)[C@@H]1C(=O)NC12CC(F)(C1)C2 [Example 622] | – | – | – | –
5.6 | 38 (≈ 22.3 µg/mL) | – | – | 9 | 13 | 4.2 | COc1cc(F)c(O[C@H]2CC[C@@](C)(C(=O)O)CC2)cc1C(=O)N[C@@H]1[C@H]2CC[C@H](C2)[C@@H]1C(=O)NCC(C)(C)C(F)(F)F [Example 38, (1S,4s)-4-(2-Fluoro-4-methoxy-5-(((1S,2R,3S,4R)-3-((3,3,3-trifluoro-2,2-dimethylpropyl)carbamoyl)bicyclo[2.2.1]heptan-2-yl)carbamoyl)phenoxy)-1-methylcyclohexane-1-carboxylic acid] | – | – | – | –
1.4 | 53 (≈ 28.2 µg/mL) | – | – | 12 | 37 | 6.7 | CC1(CNC(=O)[C@H]2[C@@H]3CC[C@@H](C3)[C@H]2NC(=O)c2cc(O[C@H]3CC[C@@](C)(C(=O)O)CC3)c(F)cc2F)CCC1 [Example 393, (1S,4s)-4-(2,4-Difluoro-5-(((1S,2R,3S,4R)-3-(((1-methylcyclobutyl)methyl)carbamoyl)bicyclo[2.2.1]heptan-2-yl)carbamoyl)phenoxy)-1-methylcyclohexane-1-carboxylic acid] | – | – | – | –
1.5 | 660 (≈ 370 µg/mL) | – | – | 25 | 81 | 13 | COc1c(Cl)cc(O[C@H]2CC[C@@](C)(C(=O)O)CC2)cc1C(=O)N[C@@H]1[C@H]2CC[C@H](C2)[C@@H]1C(=O)NCC1(C)CCC1 [Example 403] | – | – | – | –
1.9 | > 1000 | – | – | 27 | 14 | 2 | COc1cc(F)c(O[C@H]2CC[C@@](C)(C(=O)O)CC2)cc1C(=O)N[C@@H]1[C@H]2CC[C@H](C2)[C@@H]1C(=O)NCC1CCC1 [Example 2, (1S,4s)-4-(5-(((1S,2R,3S,4R)-3-((cyclobutylmethyl)carbamoyl)bicyclo[2.2.1]heptan-2-yl)carbamoyl)-2-fluoro-4-methoxyphenoxy)-1-methylcyclohexane-1-carboxylic acid] | – | – | – | –
4.8 | 880 (≈ 456 µg/mL) | – | – | 19 | 5.7 | < 1 | COc1cc(F)c(O[C@H]2CC[C@@](C)(C(=O)O)CC2)cc1C(=O)N[C@@H]1[C@H]2CC[C@H](C2)[C@@H]1C(=O)NCC(C)C [Example 34, (1S,4s)-4-(2-Fluoro-5-(((1S,2R,3S,4R)-3-(isobutylcarbamoyl)bicyclo[2.2.1]heptan-2-yl)carbamoyl)-4-methoxyphenoxy)-1-methylcyclohexane-1-carboxylic acid] | – | – | – | –
2.7 | 470 (≈ 264 µg/mL) | – | – | 15 | 36 | 4.7 | COc1cc(Cl)c(O[C@H]2CC[C@@](C)(C(=O)O)CC2)cc1C(=O)N[C@@H]1[C@H]2CC[C@H](C2)[C@@H]1C(=O)NCC1(C)CCC1 [Example 392, (1S,4s)-4-(2-Chloro-4-methoxy-5-(((1S,2R,3S,4R)-3-(((1-methylcyclobutyl)methyl)carbamoyl)bicyclo[2.2.1]heptan-2-yl)carbamoyl)phenoxy)-1-methylcyclohexane-1-carboxylic acid] | – | – | – | –

SMILES | Test B Human Plasma Protein Binding (% free) [2] [% free] | solubility (Solubility (Test F)) [µM] | Test A Sinf (human RXFP1; RXFP1 Hu cAMP) [%] | EC50 (human RXFP1; [5]) [nM] | hepatocyte CLint [1] [µL/min/1e6 cells] | microsomal CLint [3] [µL/min/mg] | hepatocyte CLint at 1 µM [4] [µL/min/1e6 cells] | Test E Rat Hepatocyte Stability Clint ([1]; rat hepatocytes) [μL/min/10^6 cells] | Test C Human Liver Microsomal Stability Clint ([3]; human liver microsomes) [µL/min/mg] | Test D Human Hepatocyte Stability Clint ([4]; human hepatocytes) [μL/min/10^6 cells] | EC50 (human RXFP1; Test A EC50, RXFP1 Hu cAMP) [nM]
COc1cc(C#N)c(O[C@H]2CC[C@@](C)(C(=O)O)CC2)cc1C(=O)N[C@H]1C2CCC(CC2)[C@H]1C(=O)NCC1(C)CCC1 (relative stereo) [Example 539, (1R,4s)-4-(2-Cyano-4-methoxy-5-(((2S*,3R*)-3-(((1-methylcyclobutyl)methyl)carbamoyl)bicyclo[2.2.2]octan-2-yl)carbamoyl)phenoxy)-1-methylcyclohexane-1-carboxylic acid] | 3.2 | 700 (≈ 396 µg/mL) | 102 | 3.1 | – | – | – | 28 | 63 | 64 | –
CC1(CNC(=O)[C@H]2[C@H]3CC[C@H](C3)[C@H]2NC(=O)c2cc(O[C@H]3CC[C@@](C)(C(=O)O)CC3)c(C#N)cc2F)CCC1 [Example 413] | 1.5 | 820 (≈ 443 µg/mL) | 107 | – | 21 | 9.3 | 4.5 | – | – | – | 16
